According to patent US4639444A, “3,5-dialkyl-4,6-diaryl-tetrahydro-2H-13,5-thiadiazine-2-thione derivative, process for its production and antihyperlipidemic agent containing it” (Nissan Chemical Industries Ltd., priority 1984, dated 1987):

Experiments:
[1] = literature, and its derivatives; cited from earlier work
[2] = system: emulsion-induced hyperlipidemic rats; assay: antihyperlipidemic activity in emulsion-induced hyperlipidemic rats; type: in vivo; settings: Rattus norvegicus, po, 72 h, 300 mg/kg daily via stomach tube, 3 days, male S.D. rats, lipids emulsion, versus control group; for change in vivo at 300 mg/kg: "-" = reduction rate, read-out: Increase rate of serum HDL-Chol.; for inhibition in vivo at 300 mg/kg: read-out: Reduction rate of serum Chol.
Procedure: The antihyperlipidemic activity in emulsion-induced hyperlipidemic rats: Male S. D. rats weighing 80-90 g (4 weeks old) were used. They were devided into groups of 5 to 6 rats each. The test compounds suspended in 0.5% CMC-Na(carboxymethyl cellulose sodium salt) were given to the rats in a daily dose of 4.0 ml/kg (i.e. 300 mg/kg of the test compounds) via stomach tube every 10:00 a.m. After 30 min., lipids emulsion having the following composition was orally given to the rats in an amount of 2.5 ml per rat. During the experimental period of 3 days, the rats were fed on a standard commercial diet and water ad libitum. […] The total cholesterol and HDL cholesterol were measured. The weight of the liver was measured. To the control group, only the aqueous CMC-Na solution and the lipids emulsion were given. The fractionation of lipoproteins was conducted by a dextran sulfate-MgCl2 precipitation method. Cholesterol in serum was measured by means of a cholesterol measuring kit (Cholesterol C-Test Wako, manufactured by Wako Junyaku Co., Ltd.), and cholesterol in HDL was measured by means of NC Hi-Set, manufactured by Nippon Chemiphar Co., Ltd. In the following description, cholesterol is referred to as "Chol". Further, the reduction rate of Chol was calculated by the following equation. [formula] where A is the amount of serum Chol (mg/dl) of the control group, and B is the amount of serum Chol (mg/dl) of the group to which the therapeutic agent was administered. Likewise, the increase rate of serum HDL-Chol was calculated by the following equation. [formula] where C is the amount of serum HDL-Chol (mg/dl) of the control group, and D is the amount of serum HDL-Chol (mg/dl) of the group to which the therapeutic agent was administered.

[3] = animal experiments, Svoboda and Azarnoff, Cancer Res. 39, 3419 (1979); cited from earlier work
[4] = acute toxicity (mortality after seven days); settings: mouse, in vivo, po, 4000 mg/kg p.o., male ddY mice
Procedure: The test compounds suspended in 0.5% CMC-Na were administered p.o. to male ddY mice. The acute toxicity was determined based on the mortality after seven days. In respect of the Compound Nos. 1, 2, 3, 4, 6, 7, 10, 12 and 13 of the present invention, the mortality was 0% even at a dose of as high as 4000 mg/kg by oral administration.

Which results are given for CCOC(=O)C(C)(C)Oc1ccc(Cl)cc1 [Clofibrate, reference compound]?
side effects reported [1]: myalgia or hepatic insufficiency,and they are likely to lead to gallstone formation; change in vivo at 300 mg/kg [2]: -8%; inhibition in vivo at 300 mg/kg [2]: 45%; hepatic carcinoma [3]: brings about hepatic carcinoma on animal experiments

For COc1ccc(C2SC(=S)N(C)C(c3ccc(OC)cc3)N2C)cc1 (stereo not shown) [Compound No. 1, 3,5-Dimethyl-4,6-di(p-methoxyphenyl)-tetrahydro-2H-1,3,5-thiadiazine-2-thione], which mortality at 168 h [4] is on record?
The mortality at 168 h was 0%.

What about the change in vivo at 300 mg/kg [2] of the same compound?
Its change in vivo at 300 mg/kg is 53%.

What about the inhibition in vivo at 300 mg/kg [2] of the same compound?
The inhibition in vivo at 300 mg/kg was 42%.

For COc1cccc(C2SC(=S)N(C)C(c3cccc(OC)c3)N2C)c1 (stereo not shown) [Compound No. 2], which mortality at 168 h [4] is on record?
The mortality at 168 h was 0%.

And the change in vivo at 300 mg/kg [2]?
Its change in vivo at 300 mg/kg is 25%.

What about the inhibition in vivo at 300 mg/kg [2] of the same compound?
Its inhibition in vivo at 300 mg/kg is 41%.

For COc1ccccc1C1SC(=S)N(C)C(c2ccccc2OC)N1C (stereo not shown) [Compound No. 3], which mortality at 168 h [4] is on record?
The mortality at 168 h was 0%.

And the change in vivo at 300 mg/kg [2]?
The change in vivo at 300 mg/kg was 33%.

What about the inhibition in vivo at 300 mg/kg [2] of the same compound?
The inhibition in vivo at 300 mg/kg was 32%.

For Cc1ccc(C2SC(=S)N(C)C(c3ccc(C)cc3)N2C)cc1 (stereo not shown) [Compound No. 4], which mortality at 168 h [4] is on record?
Its mortality at 168 h is 0%.

What about the change in vivo at 300 mg/kg [2] of the same compound?
The change in vivo at 300 mg/kg was 99%.

And the inhibition in vivo at 300 mg/kg [2]?
The inhibition in vivo at 300 mg/kg was 49%.

For Cc1cccc(C2SC(=S)N(C)C(c3cccc(C)c3)N2C)c1 (stereo not shown) [Compound No. 5], which change in vivo at 300 mg/kg [2] is on record?
The change in vivo at 300 mg/kg was 52%.

What about the inhibition in vivo at 300 mg/kg [2] of the same compound?
The inhibition in vivo at 300 mg/kg was 44%.

For Cc1ccccc1C1SC(=S)N(C)C(c2ccccc2C)N1C (stereo not shown) [compound 6], which mortality at 168 h [4] is on record?
Its mortality at 168 h is 0%.

What about the change in vivo at 300 mg/kg [2] of the same compound?
The change in vivo at 300 mg/kg was 61%.

And the inhibition in vivo at 300 mg/kg [2]?
Its inhibition in vivo at 300 mg/kg is 40%.

Which results are given for CCOc1ccccc1C1SC(=S)N(C)C(c2ccccc2OCC)N1C (stereo not shown) [compound 7]?
mortality at 168 h [4]: 0%; change in vivo at 300 mg/kg [2]: 14%; inhibition in vivo at 300 mg/kg [2]: 37%

With CN1C(=S)SC(c2ccc(F)cc2)N(C)C1c1ccc(F)cc1 (stereo not shown) [compound 8] as the compound, how does the change in vivo at 300 mg/kg [2] read?
The change in vivo at 300 mg/kg was 37%.

What about the inhibition in vivo at 300 mg/kg [2] of the same compound?
Its inhibition in vivo at 300 mg/kg is 26%.

Which change in vivo at 300 mg/kg [2] does the source give for CC(C)c1ccc(C2SC(=S)N(C)C(c3ccc(C(C)C)cc3)N2C)cc1 (stereo not shown) [compound 9] here?
The change in vivo at 300 mg/kg was 56%.

What about the inhibition in vivo at 300 mg/kg [2] of the same compound?
The inhibition in vivo at 300 mg/kg was 30%.

What does the source list for CN1C(=S)SC(c2ccc(Oc3ccccc3)cc2)N(C)C1c1ccc(Oc2ccccc2)cc1 (stereo not shown) [compound 10]?
mortality at 168 h [4]: 0%; change in vivo at 300 mg/kg [2]: -23%; inhibition in vivo at 300 mg/kg [2]: 53%

Which results are given for CSc1ccc(C2SC(=S)N(C)C(c3ccc(SC)cc3)N2C)cc1 (stereo not shown) [compound 11]?
change in vivo at 300 mg/kg [2]: 53%; inhibition in vivo at 300 mg/kg [2]: 13%

What does the source list for COc1ccc(C2SC(=S)N(C)C(c3ccc(OC)cc3OC)N2C)c(OC)c1 (stereo not shown) [compound 12]?
mortality at 168 h [4]: 0%; change in vivo at 300 mg/kg [2]: 46%; inhibition in vivo at 300 mg/kg [2]: 31%

Which results are given for CN1C(=S)SC(c2ccc3c(c2)OCO3)N(C)C1c1ccc2c(c1)OCO2 (stereo not shown) [compound 13]?
mortality at 168 h [4]: 0%; change in vivo at 300 mg/kg [2]: 54%; inhibition in vivo at 300 mg/kg [2]: 52%

What does the source list for COc1cc(C2SC(=S)N(C)C(c3cc(OC)c(OC)c(OC)c3)N2C)cc(OC)c1OC (stereo not shown) [compound 14]?
change in vivo at 300 mg/kg [2]: 6%; inhibition in vivo at 300 mg/kg [2]: 19%

With CCN1C(=S)SC(c2ccccc2)N(CC)C1c1ccccc1 (stereo not shown) [compound 15] as the compound, how does the change in vivo at 300 mg/kg [2] read?
Its change in vivo at 300 mg/kg is 31%.

What about the inhibition in vivo at 300 mg/kg [2] of the same compound?
The inhibition in vivo at 300 mg/kg was 45%.

Which results are given for COc1cccc(C2SC(=S)N(C)C(c3cccc(OC)c3OC)N2C)c1OC (stereo not shown) [compound 16]?
change in vivo at 300 mg/kg [2]: 44%; inhibition in vivo at 300 mg/kg [2]: 34%

For O=C(O)c1cccnc1 [nicotinic acid], which side effects reported [1] is on record?
Its side effects reported is “flashing or gastroenteric troubles”.
